Test results taken from US10501425B2, “Microbiocidal oxadiazole derivatives” (SYNGENTA PARTICIPATIONS AG, priority 2015, dated 2019).

How the values were obtained:
[1] = test system: Puccinia recondita f. Sp. Tritici; experiment: Puccinia recondita f. sp. tritici / wheat / leaf disc curative (brown rust); format: in vivo; details: foliar, 24 h, 200 ppm in the applied formulation, wheat leaf segments cv. Kanzler, curative (applied 1 day after inoculation), compared to untreated, read-out: disease control
Procedure, shortened: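 Read-out is percent disease control relative to untreated segments, assessed 6 to 8 days after treatment once check disease is adequate. Kanzler wheat leaf segments on agar receive fungal spores, then test compound (DMSO stock diluted in 0.025% Tween20 or water) 1 day later, under 19° C and 75% relative humidity.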

[2] = test system: Puccinia recondita f. Sp. Tritici; experiment: Puccinia recondita f. sp. tritici / wheat / leaf disc preventative (brown rust); format: in vivo; details: foliar, 200 ppm in the applied formulation, wheat leaf segments cv. Kanzler, preventative (inoculated 1 day after application), compared to untreated, read-out: disease control
Procedure, shortened: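 Preventative leaf-segment test, cv. Kanzler on agar: spray compound, inoculate with spore suspension 1 d post-application, hold at 19° C./75% rh, 12 h/12 h light cycle. Read-out = % disease control vs untreated check at 7–9 d; 200 ppm in applied formulation.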

[3] = test system: Glomerella lacenarium (Colletotrichum lagenarium); experiment: Glomerella lagenarium liquid culture / cucumber / preventative (anthracnose); format: cell-based; details: Colletotrichum orbiculare; 20 ppm in the applied formulation; liquid culture (PDB), growth inhibition measured photometrically 3 to 4 days after application; compared to untreated; read-out: disease control
Procedure, shortened: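 Conidia from cryogenic storage were mixed into potato dextrose broth. This was added to compound diluted from DMSO into 0.025% Tween20, tested at 20 ppm. Plates were incubated in the dark at 24 °C and 96% relative humidity, and growth was read photometrically after 2–7 days as % activity versus untreated check.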

[4] = test system: Phakopsora pachyrhizi; experiment: Phakopsora pachyrhizi / soybean / leaf disc preventative (Asian soybean rust); format: in vivo; details: foliar, 200 ppm in the applied formulation, soybean leaf disks, compared to untreated, read-out: disease control
Description: Leaf disks or leaf segments of various plant species are cut from plants grown in a greenhouse. The cut leaf disks or segments are placed in multiwell plates (24-well format) onto water agar. The leaf disks are sprayed with a test solution before (preventative) or after (curative) inoculation. Compounds to be tested are prepared as DMSO solutions (max. 10 mg/ml) which are diluted to the appropriate concentration with 0.025% Tween20 just before spraying. The inoculated leaf disks or segments are incubated under defined conditions (temperature, relative humidity, light, etc.) according to the respective test system. A single evaluation of disease level is carried out 3 to 14 days after inoculation, depending on the pathosystem. Percent disease control relative to the untreated check leaf disks or segments is then calculated.
Soybean leaf disks are placed on water agar in multiwell plates (24-well format) and sprayed with the formulated test compound diluted in water. One day after application leaf discs are inoculated by spraying a spore suspension on the lower leaf surface. After an incubation period in a climate cabinet of 24-36 hours in darkness at 20° C. and 75% rh leaf disc are kept at 20° C. with 12 h light/day and 75% rh. The activity of a compound is assessed as percent disease control compared to untreated when an appropriate level of disease damage appears in untreated check leaf disks (12 to 14 days after application).
The following compounds at 200 ppm in the applied formulation give at least 80% disease control in this test when compared to untreated control leaf disks under the same conditions, which show extensive disease development.

CC(C)COC(=O)NCc1ccc(-c2noc(C(F)(F)F)n2)cc1 [Compound 2.8, isobutyl N-[[4-[5-(trifluoromethyl)-1,2,4-oxadiazol-3-yl]phenyl]methyl]carbamate]
≥ 80%: pest or weed control at 200 ppm [1] | pest or weed control at 200 ppm [2] | inhibition of growth at 20 ppm [3] | pest or weed control at 200 ppm [4]

CC(C)CC(=O)NCc1ccc(-c2noc(C(F)(F)F)n2)cc1 [Compound 1.12, 3-methyl-N-[[4-[5-(trifluoromethyl)-1,2,4-oxadiazol-3-yl]phenyl]methyl]butanamide]
≥ 80%: pest or weed control at 200 ppm [1] | pest or weed control at 200 ppm [2] | inhibition of growth at 20 ppm [3] | pest or weed control at 200 ppm [4]

CC(C)C(=O)NCc1ccc(-c2noc(C(F)(F)F)n2)cc1F [Compound 1.35, N-[[2-fluoro-4-[5-(trifluoromethyl)-1,2,4-oxadiazol-3-yl]phenyl]methyl]-2-methyl-propanamide]
≥ 80%: pest or weed control at 200 ppm [1] | pest or weed control at 200 ppm [2] | inhibition of growth at 20 ppm [3] | pest or weed control at 200 ppm [4]

CCCC(=O)NCCc1ccc(-c2noc(C(F)(F)F)n2)cc1 [Compound 1.84, N-[2-[4-[5-(trifluoromethyl)-1,2,4-oxadiazol-3-yl]phenyl]ethyl]butanamide]
≥ 80%: pest or weed control at 200 ppm [1] | pest or weed control at 200 ppm [2] | inhibition of growth at 20 ppm [3] | pest or weed control at 200 ppm [4]

CC(C)C(=O)NCc1ccc(-c2noc(C(F)(F)F)n2)cc1 [Compound 1.6, 2-methyl-N-[[4-[5-(trifluoromethyl)-1,2,4-oxadiazol-3-yl]phenyl]methyl]propanamide]
≥ 80%: pest or weed control at 200 ppm [1] | pest or weed control at 200 ppm [2] | inhibition of growth at 20 ppm [3] | pest or weed control at 200 ppm [4]

COCC(=O)NCc1ccc(-c2noc(C(F)(F)F)n2)c(F)c1F [Compound 1.56, N-[[2,3-difluoro-4-[5-(trifluoromethyl)-1,2,4-oxadiazol-3-yl]phenyl]methyl]-2-methoxy-acetamide]
≥ 80%: pest or weed control at 200 ppm [1] | pest or weed control at 200 ppm [2] | inhibition of growth at 20 ppm [3] | pest or weed control at 200 ppm [4]

CC(C)C(=O)NCc1ccc(-c2noc(C(F)(F)F)n2)c(F)c1F [Compound 1.49, N-[[2,3-difluoro-4-[5-(trifluoromethyl)-1,2,4-oxadiazol-3-yl]phenyl]methyl]-2-methyl-propanamide]
≥ 80%: pest or weed control at 200 ppm [1] | pest or weed control at 200 ppm [2] | inhibition of growth at 20 ppm [3] | pest or weed control at 200 ppm [4]

CC=CCC(=O)NCc1ccc(-c2noc(C(F)(F)F)n2)cc1 [Compound 1.14, N-[[4-[5-(trifluoromethyl)-1,2,4-oxadiazol-3-yl]phenyl]methyl]pent-3-enamide]
≥ 80%: pest or weed control at 200 ppm [1] | pest or weed control at 200 ppm [2] | inhibition of growth at 20 ppm [3] | pest or weed control at 200 ppm [4]

C=CCNC(=O)NCc1ccc(-c2noc(C(F)(F)F)n2)cc1 [Compound 3.16, 1-allyl-3-[[4-[5-(trifluoromethyl)-1,2,4-oxadiazol-3-yl]phenyl]methyl]urea]
≥ 80%: pest or weed control at 200 ppm [1] | pest or weed control at 200 ppm [2] | inhibition of growth at 20 ppm [3] | pest or weed control at 200 ppm [4]

CCCC(=O)NCc1ccc(-c2noc(C(F)(F)F)n2)c(F)c1 [Compound 1.78, N-[[3-fluoro-4-[5-(trifluoromethyl)-1,2,4-oxadiazol-3-yl]phenyl]methyl]butanamide]
≥ 80%: pest or weed control at 200 ppm [1] | pest or weed control at 200 ppm [2] | inhibition of growth at 20 ppm [3] | pest or weed control at 200 ppm [4]

CCC(C)C(=O)NCc1ccc(-c2noc(C(F)(F)F)n2)cc1 (centres unmarked) [Compound 1.17, 2-methyl-N-[[4-[5-(trifluoromethyl)-1,2,4-oxadiazol-3-yl]phenyl]methyl]butanamide]
≥ 80%: pest or weed control at 200 ppm [1] | pest or weed control at 200 ppm [2] | inhibition of growth at 20 ppm [3] | pest or weed control at 200 ppm [4]

CCCC(=O)NCc1ccc(-c2noc(C(F)(F)F)n2)cc1F [Compound 1.36, N-[[2-fluoro-4-[5-(trifluoromethyl)-1,2,4-oxadiazol-3-yl]phenyl]methyl]butanamide]
≥ 80%: pest or weed control at 200 ppm [1] | pest or weed control at 200 ppm [2] | inhibition of growth at 20 ppm [3] | pest or weed control at 200 ppm [4]

O=C(CC(F)(F)F)NCc1ccc(-c2noc(C(F)(F)F)n2)cc1F [Compound 1.46, 3,3,3-trifluoro-N-[[2-fluoro-4-[5-(trifluoromethyl)-1,2,4-oxadiazol-3-yl]phenyl]methyl]propanamide]
≥ 80%: pest or weed control at 200 ppm [1] | pest or weed control at 200 ppm [2] | inhibition of growth at 20 ppm [3] | pest or weed control at 200 ppm [4]

O=C(CC(F)(F)F)NCc1ccc(-c2noc(C(F)(F)F)n2)c(F)c1 [Compound 1.44, 3,3,3-trifluoro-N-[[3-fluoro-4-[5-(trifluoromethyl)-1,2,4-oxadiazol-3-yl]phenyl]methyl]propanamide]
≥ 80%: pest or weed control at 200 ppm [1] | pest or weed control at 200 ppm [2] | inhibition of growth at 20 ppm [3] | pest or weed control at 200 ppm [4]

COCC(=O)NCCc1ccc(-c2noc(C(F)(F)F)n2)cc1 [Compound 1.86, 2-methoxy-N-[2-[4-[5-(trifluoromethyl)-1,2,4-oxadiazol-3-yl]phenyl]ethyl]acetamide]
≥ 80%: pest or weed control at 200 ppm [1] | pest or weed control at 200 ppm [2] | inhibition of growth at 20 ppm [3] | pest or weed control at 200 ppm [4]

COCC(=O)NC(C)(C)c1ccc(-c2noc(C(F)(F)F)n2)cc1 [Compound 1.95, 2-methoxy-N-[1-methyl-1-[4-[5-(trifluoromethyl)-1,2,4-oxadiazol-3-yl]phenyl]ethyl]acetamide]
≥ 80%: pest or weed control at 200 ppm [1] | pest or weed control at 200 ppm [2] | inhibition of growth at 20 ppm [3] | pest or weed control at 200 ppm [4]

COCCCC(=O)NCCc1ccc(-c2noc(C(F)(F)F)n2)cc1 [Compound 1.89, 4-methoxy-N-[2-[4-[5-(trifluoromethyl)-1,2,4-oxadiazol-3-yl]phenyl]ethyl]butanamide]
≥ 80%: pest or weed control at 200 ppm [1] | pest or weed control at 200 ppm [2] | inhibition of growth at 20 ppm [3] | pest or weed control at 200 ppm [4]

N#CCC(=O)NCCc1ccc(-c2noc(C(F)(F)F)n2)cc1 [Compound 1.90, 2-cyano-N-[2-[4-[5-(trifluoromethyl)-1,2,4-oxadiazol-3-yl]phenyl]ethyl]acetamide]
≥ 80%: pest or weed control at 200 ppm [1] | pest or weed control at 200 ppm [2] | inhibition of growth at 20 ppm [3] | pest or weed control at 200 ppm [4]

CC(=O)NCc1ccc(-c2noc(C(F)(F)F)n2)cc1F [Compound 1.48, N-[[2-fluoro-4-[5-(trifluoromethyl)-1,2,4-oxadiazol-3-yl]phenyl]methyl]acetamide]
≥ 80%: pest or weed control at 200 ppm [1] | pest or weed control at 200 ppm [2] | inhibition of growth at 20 ppm [3] | pest or weed control at 200 ppm [4]

COCCCC(=O)NCc1ccc(-c2noc(C(F)(F)F)n2)cc1 [Compound 1.21, 4-methoxy-N-[[4-[5-(trifluoromethyl)-1,2,4-oxadiazol-3-yl]phenyl]methyl]butanamide]
≥ 80%: pest or weed control at 200 ppm [1] | pest or weed control at 200 ppm [2] | inhibition of growth at 20 ppm [3] | pest or weed control at 200 ppm [4]
